# From ChEMBL document CHEMBL1201862, “PubChem BioAssay data set” (2004)
# Structures can show the parent of a compound that is named as a salt. Active and inactive are the calls of the source.
# How the values were obtained:
# Estrogen receptor beta = Estrogen receptor beta (Homo sapiens, UniProt Q92731); assay: ERβ–SRC-3 coactivator interaction inhibitors, confirmation, orthogonal assay, biochemical, ELISA, streptavidin-HRP readout (AID 1060)
# [1] = cytotoxicity toward NIH3T3 fibroblasts, dose response, counter-screen, cell-based, ATP luminescence, mouse fibroblasts (AID 2010); format: functional;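 note: cells exposed to compound for about 90 hours before reading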
# [2] = target: FAD-linked sulfhydryl oxidase ALR (Homo sapiens, UniProt P55789); assay: inhibitors of human ALR sulfhydryl oxidase, dose response, biochemical, H2O2 detection, luminescence, cherry-pick (AID 493248)
# [3] = inhibitors of intracellular T. cruzi replication, confirmation, NIH3T3 host cells, beta-gal luminescence (AID 2044); format: functional, cell-based;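 note: intracellular parasites grown in NIH/3T3 mouse fibroblasts as host cells; luminescent beta-galactosidase reporter signal from transgenic T. cruzi replicating inside host cells; inhibitors lower the luminescence signal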
# [4] = target: T1, Trace amine-associated receptor 1 (Homo sapiens, UniProt Q96RJ0); assay: Counterscreen for agonists of the human trace amine associated receptor 1 (hTAAR1): Fluorescence-based cell-based high throughput dose response assay to identify hTAAR1 agonist that also desensitize TAAR1 receptor response.; format: functional
# T1 sequence (Q96RJ0 whole entry): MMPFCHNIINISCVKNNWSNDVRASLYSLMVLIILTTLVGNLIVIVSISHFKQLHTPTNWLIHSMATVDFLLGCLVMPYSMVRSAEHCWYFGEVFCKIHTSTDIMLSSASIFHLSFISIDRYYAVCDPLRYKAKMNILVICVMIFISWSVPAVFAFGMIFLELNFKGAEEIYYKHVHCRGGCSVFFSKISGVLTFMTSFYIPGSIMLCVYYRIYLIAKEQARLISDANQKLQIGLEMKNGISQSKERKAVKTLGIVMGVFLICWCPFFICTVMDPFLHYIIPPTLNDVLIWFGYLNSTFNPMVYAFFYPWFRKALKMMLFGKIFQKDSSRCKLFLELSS
# [5] = target: T1, Trace amine-associated receptor 1; assay: Fluorescence-based cell-based high throughput dose response assay to identify agonists of the human trace amine associated receptor 1 (TAAR1).; format: functional
# [6] = THP-1 cell cytotoxicity, dose response, cytotoxicity control for Vif-APOBEC3G degradation inhibitor project, THP-1 cells (AID 1117359); format: functional; conditions: Human immunodeficiency virus 1, THP-1
# Leucine aminopeptidase = target: T2, Leucine aminopeptidase (Plasmodium falciparum 3D7, UniProt Q8IL11); assay: P. falciparum M17LAP inhibitors, primary screen, biochemical, fluorogenic H-Leu-NHMec substrate, 1536-well (AID 1619); format: functional
# T2 sequence (Q8IL11 whole entry): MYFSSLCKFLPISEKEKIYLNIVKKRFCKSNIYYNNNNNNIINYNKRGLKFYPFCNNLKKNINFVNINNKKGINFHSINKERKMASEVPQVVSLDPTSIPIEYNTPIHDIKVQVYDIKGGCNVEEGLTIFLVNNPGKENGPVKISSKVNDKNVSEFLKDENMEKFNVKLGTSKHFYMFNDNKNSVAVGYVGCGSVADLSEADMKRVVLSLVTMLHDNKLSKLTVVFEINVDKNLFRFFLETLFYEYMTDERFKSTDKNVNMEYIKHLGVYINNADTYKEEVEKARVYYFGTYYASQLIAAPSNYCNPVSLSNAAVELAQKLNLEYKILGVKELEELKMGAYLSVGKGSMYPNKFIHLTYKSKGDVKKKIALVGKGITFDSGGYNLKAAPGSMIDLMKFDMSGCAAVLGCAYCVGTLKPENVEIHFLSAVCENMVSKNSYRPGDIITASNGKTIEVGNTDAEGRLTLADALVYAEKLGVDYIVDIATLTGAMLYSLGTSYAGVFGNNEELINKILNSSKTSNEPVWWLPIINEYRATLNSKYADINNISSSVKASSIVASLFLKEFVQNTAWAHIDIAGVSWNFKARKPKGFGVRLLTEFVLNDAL
# Genome polyprotein = Genome polyprotein (dengue virus type 2, UniProt P29990); assay: Dengue-2 NS5 methyltransferase inhibitors, primary screen, biochemical, confirmation dose response (AID 588689); format: functional
# [7] = target: T3, Heat shock factor protein 1 (Mus musculus, UniProt P38532); assay: HSF1 potentiators in luciferase reporter cells, confirmation, cell-based, NIH3T3, luminescence, dose retest (AID 435004); format: functional;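 note: stress induced by proteasome inhibitor MG132 added 30 min after compound; luciferase reporter driven by HSF1 response element in NIH3T3 cells; actives raise luminescence as potentiators of the MG132 stress response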
# T3 sequence (P38532 whole entry): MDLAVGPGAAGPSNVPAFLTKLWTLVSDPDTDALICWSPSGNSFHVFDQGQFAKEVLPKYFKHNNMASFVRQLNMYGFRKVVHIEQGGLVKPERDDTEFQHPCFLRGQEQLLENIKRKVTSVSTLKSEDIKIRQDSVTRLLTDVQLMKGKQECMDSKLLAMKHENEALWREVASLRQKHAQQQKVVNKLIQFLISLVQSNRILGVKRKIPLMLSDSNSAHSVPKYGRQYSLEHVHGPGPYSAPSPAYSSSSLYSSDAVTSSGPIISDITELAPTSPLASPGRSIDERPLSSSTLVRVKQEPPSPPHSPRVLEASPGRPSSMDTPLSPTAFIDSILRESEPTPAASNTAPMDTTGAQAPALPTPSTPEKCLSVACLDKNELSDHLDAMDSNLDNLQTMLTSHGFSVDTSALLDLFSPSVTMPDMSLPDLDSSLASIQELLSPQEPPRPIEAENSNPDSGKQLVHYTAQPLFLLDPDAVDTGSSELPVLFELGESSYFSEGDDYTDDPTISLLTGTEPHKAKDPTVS
# [8] = target: Induced myeloid leukemia cell differentiation protein Mcl-1 (Homo sapiens, UniProt Q07820); format: functional
# [9] = target: T4, Long-chain-fatty-acid--AMP ligase FadD28 (Mycobacterium tuberculosis, UniProt P9WQ59); assay: Fluorescence polarization aasay to screen for inhibitors that compete for the binding of FadD28 to a bisubstrate Measured in Biochemical System Using Plate Reader - 2147-01_Inhibitor_Dose_CherryPick_Activity.; format: functional, Mycobacterium tuberculosis H37Rv
# T4 sequence (P9WQ59 whole entry): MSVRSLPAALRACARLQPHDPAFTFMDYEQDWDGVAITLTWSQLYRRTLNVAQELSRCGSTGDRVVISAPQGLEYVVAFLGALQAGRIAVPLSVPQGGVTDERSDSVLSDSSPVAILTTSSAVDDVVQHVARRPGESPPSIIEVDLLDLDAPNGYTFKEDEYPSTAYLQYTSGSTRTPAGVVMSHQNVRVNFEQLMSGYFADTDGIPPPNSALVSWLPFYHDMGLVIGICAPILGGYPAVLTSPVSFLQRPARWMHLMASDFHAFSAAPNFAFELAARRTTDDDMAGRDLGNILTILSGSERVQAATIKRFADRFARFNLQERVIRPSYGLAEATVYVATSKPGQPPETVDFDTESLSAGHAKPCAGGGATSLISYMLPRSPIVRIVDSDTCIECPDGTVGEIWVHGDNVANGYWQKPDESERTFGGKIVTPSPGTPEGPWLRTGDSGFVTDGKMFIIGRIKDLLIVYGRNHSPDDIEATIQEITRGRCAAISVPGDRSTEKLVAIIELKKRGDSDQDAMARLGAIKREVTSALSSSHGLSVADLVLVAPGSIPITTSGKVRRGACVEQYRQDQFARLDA
# [10] = target: T5, Histone-lysine N-methyltransferase NSD2 (Homo sapiens, UniProt O96028); format: biochemical
# T5 sequence (O96028 whole entry): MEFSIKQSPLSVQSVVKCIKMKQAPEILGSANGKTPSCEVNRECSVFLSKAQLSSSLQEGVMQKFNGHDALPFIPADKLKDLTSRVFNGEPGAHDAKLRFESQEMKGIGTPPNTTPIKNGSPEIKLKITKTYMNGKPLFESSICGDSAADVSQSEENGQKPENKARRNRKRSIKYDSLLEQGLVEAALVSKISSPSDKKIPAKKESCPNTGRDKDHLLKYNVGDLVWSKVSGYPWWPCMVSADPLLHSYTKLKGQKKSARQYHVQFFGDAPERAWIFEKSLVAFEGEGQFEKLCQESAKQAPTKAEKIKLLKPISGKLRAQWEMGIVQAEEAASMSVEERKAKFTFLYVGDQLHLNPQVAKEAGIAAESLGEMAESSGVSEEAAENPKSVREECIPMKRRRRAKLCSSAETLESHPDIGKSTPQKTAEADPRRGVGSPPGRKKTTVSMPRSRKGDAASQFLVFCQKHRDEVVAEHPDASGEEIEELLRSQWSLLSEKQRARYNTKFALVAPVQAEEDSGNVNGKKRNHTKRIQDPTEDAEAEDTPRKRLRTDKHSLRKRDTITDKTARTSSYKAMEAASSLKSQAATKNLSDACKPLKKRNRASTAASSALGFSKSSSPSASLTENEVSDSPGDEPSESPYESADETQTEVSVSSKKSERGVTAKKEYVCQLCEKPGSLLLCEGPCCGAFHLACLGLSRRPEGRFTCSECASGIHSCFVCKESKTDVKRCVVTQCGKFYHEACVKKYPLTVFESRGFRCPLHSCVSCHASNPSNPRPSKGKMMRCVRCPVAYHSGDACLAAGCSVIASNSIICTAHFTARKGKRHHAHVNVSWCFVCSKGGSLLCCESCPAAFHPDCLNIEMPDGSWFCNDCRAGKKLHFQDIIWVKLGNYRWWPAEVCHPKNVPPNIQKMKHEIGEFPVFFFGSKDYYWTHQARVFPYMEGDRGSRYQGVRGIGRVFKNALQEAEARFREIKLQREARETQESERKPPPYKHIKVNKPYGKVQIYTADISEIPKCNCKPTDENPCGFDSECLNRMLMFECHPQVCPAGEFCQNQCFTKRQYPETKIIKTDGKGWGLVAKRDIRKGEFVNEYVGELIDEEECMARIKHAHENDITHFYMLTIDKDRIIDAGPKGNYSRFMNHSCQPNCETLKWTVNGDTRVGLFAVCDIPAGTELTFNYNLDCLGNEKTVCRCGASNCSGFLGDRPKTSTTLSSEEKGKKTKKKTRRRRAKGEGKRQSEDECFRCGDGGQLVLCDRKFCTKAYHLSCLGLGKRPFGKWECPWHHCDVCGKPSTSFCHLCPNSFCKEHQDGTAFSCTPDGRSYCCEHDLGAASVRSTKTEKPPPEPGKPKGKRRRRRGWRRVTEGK
# Nonstructural protein 1 = Nonstructural protein 1 (Influenza A virus, UniProt Q194T2); format: functional, Influenza A virus (A/California/07/2009(H1N1))
# [11] = target: Ras and Rab interactor 1/Tyrosine-protein kinase ABL1 (Homo sapiens, UniProt P00519+Q13671); format: functional;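 note: biochemical TR-FRET dose-response test measuring inhibition of binding between Rin1 and Abl proteins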
# Sequence of Ras and Rab interactor 1/Tyrosine-protein kinase ABL1 (P00519 whole entry): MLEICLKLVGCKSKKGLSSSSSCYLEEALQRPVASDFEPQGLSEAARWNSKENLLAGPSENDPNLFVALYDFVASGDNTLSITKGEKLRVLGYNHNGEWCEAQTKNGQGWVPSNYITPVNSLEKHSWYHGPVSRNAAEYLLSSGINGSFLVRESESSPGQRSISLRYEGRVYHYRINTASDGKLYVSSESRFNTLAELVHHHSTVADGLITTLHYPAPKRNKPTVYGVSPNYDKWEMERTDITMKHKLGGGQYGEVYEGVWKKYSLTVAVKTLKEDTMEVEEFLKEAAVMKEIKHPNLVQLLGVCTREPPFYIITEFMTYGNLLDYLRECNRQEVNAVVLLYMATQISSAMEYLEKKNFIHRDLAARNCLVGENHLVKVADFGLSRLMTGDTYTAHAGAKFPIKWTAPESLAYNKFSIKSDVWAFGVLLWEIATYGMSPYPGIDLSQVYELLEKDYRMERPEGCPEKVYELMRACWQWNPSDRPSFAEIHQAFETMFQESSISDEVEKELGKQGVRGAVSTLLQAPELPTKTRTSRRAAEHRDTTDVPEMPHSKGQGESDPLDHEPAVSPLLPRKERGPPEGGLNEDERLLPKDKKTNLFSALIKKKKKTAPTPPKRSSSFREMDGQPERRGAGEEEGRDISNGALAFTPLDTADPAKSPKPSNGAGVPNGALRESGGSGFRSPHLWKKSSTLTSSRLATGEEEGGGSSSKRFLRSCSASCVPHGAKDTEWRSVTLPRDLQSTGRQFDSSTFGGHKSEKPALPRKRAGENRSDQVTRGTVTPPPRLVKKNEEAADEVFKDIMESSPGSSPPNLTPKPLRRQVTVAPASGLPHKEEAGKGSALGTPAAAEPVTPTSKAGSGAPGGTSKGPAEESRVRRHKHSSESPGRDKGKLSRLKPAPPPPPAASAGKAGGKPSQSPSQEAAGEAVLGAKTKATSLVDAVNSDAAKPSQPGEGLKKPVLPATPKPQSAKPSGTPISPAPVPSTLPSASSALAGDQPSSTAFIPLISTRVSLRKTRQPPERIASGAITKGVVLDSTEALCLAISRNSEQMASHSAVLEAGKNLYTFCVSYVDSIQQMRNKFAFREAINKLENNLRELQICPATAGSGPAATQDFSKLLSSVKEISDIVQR
# Sequence of Ras and Rab interactor 1/Tyrosine-protein kinase ABL1 (Q13671 whole entry): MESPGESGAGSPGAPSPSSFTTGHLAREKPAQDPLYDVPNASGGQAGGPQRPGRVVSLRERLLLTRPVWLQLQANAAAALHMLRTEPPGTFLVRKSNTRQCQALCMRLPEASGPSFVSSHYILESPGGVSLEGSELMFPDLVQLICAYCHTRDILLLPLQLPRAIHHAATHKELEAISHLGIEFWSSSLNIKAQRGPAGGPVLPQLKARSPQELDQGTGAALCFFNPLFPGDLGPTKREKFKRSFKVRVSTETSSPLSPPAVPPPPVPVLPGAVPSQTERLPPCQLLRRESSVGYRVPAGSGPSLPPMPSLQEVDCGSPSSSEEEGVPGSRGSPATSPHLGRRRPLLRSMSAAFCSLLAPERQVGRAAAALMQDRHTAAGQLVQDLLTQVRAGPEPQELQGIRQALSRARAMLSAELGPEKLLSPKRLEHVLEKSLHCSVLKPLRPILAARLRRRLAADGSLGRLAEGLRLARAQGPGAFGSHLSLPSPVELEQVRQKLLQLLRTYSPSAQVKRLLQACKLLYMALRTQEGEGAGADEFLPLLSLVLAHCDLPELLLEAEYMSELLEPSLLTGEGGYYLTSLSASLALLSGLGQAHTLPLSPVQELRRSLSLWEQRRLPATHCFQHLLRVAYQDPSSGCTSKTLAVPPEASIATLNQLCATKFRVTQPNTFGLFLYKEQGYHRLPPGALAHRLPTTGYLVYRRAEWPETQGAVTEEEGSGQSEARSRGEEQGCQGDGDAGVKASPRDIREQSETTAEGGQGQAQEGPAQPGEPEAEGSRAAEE
# Sequence of Genome polyprotein (P29990 2492-3391 limits assumed): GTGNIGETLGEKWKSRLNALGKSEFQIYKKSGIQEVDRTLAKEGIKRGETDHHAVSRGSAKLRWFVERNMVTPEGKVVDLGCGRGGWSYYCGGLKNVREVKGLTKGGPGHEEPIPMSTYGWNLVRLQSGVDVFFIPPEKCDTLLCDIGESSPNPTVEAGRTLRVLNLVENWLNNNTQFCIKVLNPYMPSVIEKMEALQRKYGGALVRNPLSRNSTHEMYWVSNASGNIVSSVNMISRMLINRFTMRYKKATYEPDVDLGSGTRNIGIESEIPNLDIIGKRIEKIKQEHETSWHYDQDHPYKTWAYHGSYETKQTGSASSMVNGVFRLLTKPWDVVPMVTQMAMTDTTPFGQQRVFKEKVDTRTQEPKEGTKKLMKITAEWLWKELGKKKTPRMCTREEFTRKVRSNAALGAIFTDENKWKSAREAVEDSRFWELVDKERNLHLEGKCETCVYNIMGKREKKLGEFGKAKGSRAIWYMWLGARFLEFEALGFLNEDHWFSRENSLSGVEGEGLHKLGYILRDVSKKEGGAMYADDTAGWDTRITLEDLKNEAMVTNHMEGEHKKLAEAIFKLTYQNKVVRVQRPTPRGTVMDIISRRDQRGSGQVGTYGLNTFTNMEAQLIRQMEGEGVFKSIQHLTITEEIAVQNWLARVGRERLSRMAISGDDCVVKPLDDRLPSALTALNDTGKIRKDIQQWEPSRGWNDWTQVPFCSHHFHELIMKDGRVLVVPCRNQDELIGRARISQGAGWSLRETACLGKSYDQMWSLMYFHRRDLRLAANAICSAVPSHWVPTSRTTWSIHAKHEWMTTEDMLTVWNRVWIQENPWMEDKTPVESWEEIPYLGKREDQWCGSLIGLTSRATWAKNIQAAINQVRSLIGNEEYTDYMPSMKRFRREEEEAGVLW
# Sequence of Nonstructural protein 1 (Q194T2 whole entry): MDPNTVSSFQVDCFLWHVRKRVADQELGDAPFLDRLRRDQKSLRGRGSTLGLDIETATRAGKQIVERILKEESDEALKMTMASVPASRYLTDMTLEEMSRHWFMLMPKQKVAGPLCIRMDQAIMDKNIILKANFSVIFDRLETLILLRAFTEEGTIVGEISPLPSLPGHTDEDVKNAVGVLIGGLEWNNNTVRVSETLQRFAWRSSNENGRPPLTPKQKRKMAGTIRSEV
# Sequence of Estrogen receptor beta (Q92731 whole entry): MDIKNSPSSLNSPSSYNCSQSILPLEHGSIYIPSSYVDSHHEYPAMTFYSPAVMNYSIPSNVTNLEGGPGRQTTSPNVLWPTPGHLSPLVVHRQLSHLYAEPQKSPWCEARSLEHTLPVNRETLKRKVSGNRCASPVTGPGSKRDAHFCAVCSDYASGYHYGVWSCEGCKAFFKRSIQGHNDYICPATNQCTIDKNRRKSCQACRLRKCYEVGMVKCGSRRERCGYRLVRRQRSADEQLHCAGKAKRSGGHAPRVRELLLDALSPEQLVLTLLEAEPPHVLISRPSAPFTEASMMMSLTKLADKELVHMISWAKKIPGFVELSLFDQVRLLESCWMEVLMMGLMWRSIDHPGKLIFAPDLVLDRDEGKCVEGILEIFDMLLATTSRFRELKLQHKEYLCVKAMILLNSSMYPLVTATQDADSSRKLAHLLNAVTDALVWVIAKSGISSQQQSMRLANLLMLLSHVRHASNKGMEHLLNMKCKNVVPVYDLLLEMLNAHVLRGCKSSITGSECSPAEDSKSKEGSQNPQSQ
# Sequence of Induced myeloid leukemia cell differentiation protein Mcl-1 (Q07820 whole entry): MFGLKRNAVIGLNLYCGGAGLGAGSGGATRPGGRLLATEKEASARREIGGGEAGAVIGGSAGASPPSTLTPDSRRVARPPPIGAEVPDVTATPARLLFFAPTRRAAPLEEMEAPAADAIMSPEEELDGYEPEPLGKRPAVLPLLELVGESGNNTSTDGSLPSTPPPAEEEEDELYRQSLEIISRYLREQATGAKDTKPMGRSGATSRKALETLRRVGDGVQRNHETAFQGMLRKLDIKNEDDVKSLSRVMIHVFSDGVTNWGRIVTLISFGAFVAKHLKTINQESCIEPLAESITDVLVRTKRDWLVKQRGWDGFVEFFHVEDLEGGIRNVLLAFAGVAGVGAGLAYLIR
# Sequence of FAD-linked sulfhydryl oxidase ALR (P55789 whole entry): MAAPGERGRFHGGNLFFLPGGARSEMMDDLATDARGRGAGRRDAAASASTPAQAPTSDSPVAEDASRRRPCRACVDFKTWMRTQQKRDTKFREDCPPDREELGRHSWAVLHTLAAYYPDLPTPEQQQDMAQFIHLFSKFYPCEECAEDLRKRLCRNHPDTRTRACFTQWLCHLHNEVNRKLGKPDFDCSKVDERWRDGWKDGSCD
smiles,measurement,setting,value
CN1CCN(c2ccc(NC(=O)COc3ccccc3Cl)cc2)CC1,IC50,Estrogen receptor beta,814 nM (not active)
CCN(CCNC(=O)C1CCCN(Cc2nc(-c3ccc(OC)cc3)oc2C)C1)c1ccccc1 (centres undefined),EC50,[1],7.96 µM (active)
same,EC50,cells,383 nM (active)
same,AC50,[2],10 nM (active)
same,EC50,[3],< 100 nM (active)
c1ccc(CN(CC2=NCCN2)c2ccccc2)cc1 [ANTAZOLINE HYDROCHLORIDE],IC50,[4],> 29.9 µM (inactive)
same,EC50,[5],4.31 µM (active)
Cc1cccc(NC(=O)CSc2nnc(-c3ccco3)c(-c3ccco3)n2)c1C,CC50,[6],> 40 µM (active)
same,IC50,Leucine aminopeptidase,20.6 µM (active)
same,IC50,Genome polyprotein,96.3 µM (active)
same,EC50,[7],> 260 µM (inactive)
same,IC50,[8],5.98 µM (active)
same,AC50,[9],> 100 µM (inactive)
CC(=O)n1cc([C@H]2C=C(C(=O)N3CCN(Cc4ccc5c(c4)OCO5)CC3)O[C@@H](OCc3ccc(CO)cc3)C2)c2ccccc21,EC50,[1],> 30 µM (not active)
same,EC50,cells,197 nM (active)
same,EC50,[3],< 100 nM (active)
CC1NC(=O)NC1CCCCCC(=O)Nc1ccc(F)c(Cl)c1 (centres undefined),AC50,[10],343 nM (active)
same,IC50,Nonstructural protein 1,1.16 µM (active)
same,IC50,[11],15 nM (active)
